Assay results taken from ChEMBL document CHEMBL5505964, “HDAC/NAMPT dual inhibitors overcome initial drug-resistance in p53-null leukemia cells” (Eur J Med Chem, 2024).
pIC50: −log10 of the molar value.

What was measured:
Histone deacetylase 11 = biological target: T1, Histone deacetylase 11 (Homo sapiens, UniProt Q96DB2); test: Inhibition of full length human recombinant HDAC11 (1 to 347 residues) expressed in baculovirus-infected Sf9 cells using Boc-Lys-(trifluoroacetyl)-AMC as substrate preincubated with enzyme for 1 hr followed by substrate addition and measured after 2 hrs by fluorescence analysis
T1 sequence (Q96DB2 whole entry): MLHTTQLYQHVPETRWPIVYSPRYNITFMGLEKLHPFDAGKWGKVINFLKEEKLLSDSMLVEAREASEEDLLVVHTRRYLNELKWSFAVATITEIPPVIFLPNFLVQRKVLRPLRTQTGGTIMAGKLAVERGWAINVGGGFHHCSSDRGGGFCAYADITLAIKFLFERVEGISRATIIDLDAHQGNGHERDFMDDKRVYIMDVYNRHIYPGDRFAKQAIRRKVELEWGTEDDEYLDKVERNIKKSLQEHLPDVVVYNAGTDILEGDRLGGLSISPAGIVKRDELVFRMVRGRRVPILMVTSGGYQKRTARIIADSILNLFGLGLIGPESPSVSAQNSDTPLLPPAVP

[1] = biological target: Nicotinamide phosphoribosyltransferase (Homo sapiens, UniProt P43490); test: Inhibition of N-terminal GST-tagged human recombinant NAMPT (2 to 491 residues) expressed in Escherichia coli expression system incubated for 30 mins by fluorescence based analysis
HL-60 [2] = test: Antiproliferative activity against p53-null human HL-60 cells assessed as induction of cell death incubated for 48 hrs in presence of nicotinamide mononucleotide by resazurin dye based fluorescence analysis; type: functional; details: read-out: LD50 (the source's name)
MV4-11 = test: Antiproliferative activity against human MV4-11 cells harboring wild type p53 assessed as induction of cell death incubated for 48 hrs by resazurin dye based fluorescence analysis; type: functional; details: read-out: LD50 (the source's name)
[3] = biological target: T2, Protein deacetylase HDAC6 (Homo sapiens, UniProt Q9UBN7); test: Inhibition of N-terminal GST-tagged human full length recombinant HDAC6 (1 to 1215 residues) expressed in baculovirus-infected Sf9 cells using Boc-Lys-(acetyl)-AMC as substrate preincubated with enzyme for 1 hr followed by substrate addition and measured after 2 hrs by fluorescence analysis
T2 sequence (Q9UBN7 whole entry): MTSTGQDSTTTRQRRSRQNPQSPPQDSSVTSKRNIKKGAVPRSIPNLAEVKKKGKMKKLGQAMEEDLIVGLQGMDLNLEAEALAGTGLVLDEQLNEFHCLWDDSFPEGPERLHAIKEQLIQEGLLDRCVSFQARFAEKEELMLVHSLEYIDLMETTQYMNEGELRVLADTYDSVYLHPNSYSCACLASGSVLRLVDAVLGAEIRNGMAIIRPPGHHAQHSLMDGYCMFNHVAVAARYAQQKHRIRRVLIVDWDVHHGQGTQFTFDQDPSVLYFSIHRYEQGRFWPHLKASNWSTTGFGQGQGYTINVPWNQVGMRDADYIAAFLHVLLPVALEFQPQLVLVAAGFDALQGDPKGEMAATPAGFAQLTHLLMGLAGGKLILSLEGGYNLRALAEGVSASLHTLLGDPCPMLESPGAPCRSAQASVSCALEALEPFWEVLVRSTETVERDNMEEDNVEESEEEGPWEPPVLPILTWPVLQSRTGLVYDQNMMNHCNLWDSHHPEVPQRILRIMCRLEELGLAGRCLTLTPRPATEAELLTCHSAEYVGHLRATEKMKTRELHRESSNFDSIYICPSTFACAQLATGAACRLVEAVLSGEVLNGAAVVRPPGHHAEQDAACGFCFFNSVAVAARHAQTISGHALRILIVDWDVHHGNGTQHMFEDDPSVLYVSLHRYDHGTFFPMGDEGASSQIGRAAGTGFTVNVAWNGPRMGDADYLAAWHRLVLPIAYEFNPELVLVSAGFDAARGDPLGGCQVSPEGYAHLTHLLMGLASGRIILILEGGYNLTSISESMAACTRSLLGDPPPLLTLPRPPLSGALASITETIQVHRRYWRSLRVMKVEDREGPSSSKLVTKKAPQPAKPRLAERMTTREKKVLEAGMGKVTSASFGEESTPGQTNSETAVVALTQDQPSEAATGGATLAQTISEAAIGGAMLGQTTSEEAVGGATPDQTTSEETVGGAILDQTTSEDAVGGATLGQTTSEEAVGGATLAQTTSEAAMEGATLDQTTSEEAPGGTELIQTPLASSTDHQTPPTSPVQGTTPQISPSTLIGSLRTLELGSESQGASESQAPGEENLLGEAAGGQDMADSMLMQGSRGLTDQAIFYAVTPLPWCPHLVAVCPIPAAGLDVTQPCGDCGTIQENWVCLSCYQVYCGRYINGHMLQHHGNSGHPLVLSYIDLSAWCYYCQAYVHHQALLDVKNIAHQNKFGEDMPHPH

HL-60 [4] = test: Antiproliferative activity against p53-null human HL-60 cells assessed as inhibition of cell growth incubated for 48 hrs by resazurin dye based fluorescence analysis; type: functional
Histone deacetylase 9 = Histone deacetylase 9 (Homo sapiens, UniProt Q9UKV0); test: (§1) Inhibition of C-terminal His-tagged human recombinant HDAC9 (604 to 1066 residues) expressed in baculovirus-infected Sf9 cells using Boc-Lys-(trifluoroacetyl)-AMC as substrate preincubated with enzyme for 1 hr followed by substrate addition and measured after 2 hrs by fluorescence analysis
[5] = Cmax in CD-1 male mouse at 5 mg/kg, iv measured for 24 hrs by LC-MS/MS analysis; type: ADME, organism-based; details: CD-1, mouse, in vivo
[6] = AUC (0 to infinity) in CD-1 male mouse at 5 mg/kg, iv by LC-MS/MS analysis; type: ADME, organism-based; details: CD-1, mouse, in vivo
[7] = Half life in CD-1 male mouse at 5 mg/kg, iv measured for 24 hrs by LC-MS/MS analysis; type: ADME, organism-based; details: CD-1, mouse, in vivo
[8] = Plasma clearance in CD-1 male mouse at 5 mg/kg, iv measured for 24 hrs by LC-MS/MS analysis; type: ADME, organism-based; details: CD-1, mouse
[9] = biological target: Histone deacetylase 3/Nuclear receptor corepressor 2 (HDAC3/NCoR2) (Homo sapiens, UniProt O15379); test: as §1, with “HDAC3 (1” for “recombinant HDAC9 (604”, “428 residues)/N-terminal GST tagged human NCOR2 (395 to 489” for “1066”, “Boc-Lys-(acetyl)-AMC” for “Boc-Lys-(trifluoroacetyl)-AMC”
Sequence of Histone deacetylase 3/Nuclear receptor corepressor 2 (HDAC3/NCoR2) (O15379 whole entry): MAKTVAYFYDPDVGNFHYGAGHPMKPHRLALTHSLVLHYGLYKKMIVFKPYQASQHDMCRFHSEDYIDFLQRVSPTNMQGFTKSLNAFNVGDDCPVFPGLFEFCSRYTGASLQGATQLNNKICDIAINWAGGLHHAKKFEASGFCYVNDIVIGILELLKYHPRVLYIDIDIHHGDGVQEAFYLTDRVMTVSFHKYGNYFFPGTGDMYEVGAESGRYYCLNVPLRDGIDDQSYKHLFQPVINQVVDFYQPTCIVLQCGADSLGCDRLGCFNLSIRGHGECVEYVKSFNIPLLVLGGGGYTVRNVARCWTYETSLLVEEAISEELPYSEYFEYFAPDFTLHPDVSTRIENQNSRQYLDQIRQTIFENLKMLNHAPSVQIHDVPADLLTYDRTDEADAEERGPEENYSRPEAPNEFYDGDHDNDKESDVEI
Sequence of Histone deacetylase 3/Nuclear receptor corepressor 2 (HDAC3/NCoR2) (Q9Y618 whole entry, further chain): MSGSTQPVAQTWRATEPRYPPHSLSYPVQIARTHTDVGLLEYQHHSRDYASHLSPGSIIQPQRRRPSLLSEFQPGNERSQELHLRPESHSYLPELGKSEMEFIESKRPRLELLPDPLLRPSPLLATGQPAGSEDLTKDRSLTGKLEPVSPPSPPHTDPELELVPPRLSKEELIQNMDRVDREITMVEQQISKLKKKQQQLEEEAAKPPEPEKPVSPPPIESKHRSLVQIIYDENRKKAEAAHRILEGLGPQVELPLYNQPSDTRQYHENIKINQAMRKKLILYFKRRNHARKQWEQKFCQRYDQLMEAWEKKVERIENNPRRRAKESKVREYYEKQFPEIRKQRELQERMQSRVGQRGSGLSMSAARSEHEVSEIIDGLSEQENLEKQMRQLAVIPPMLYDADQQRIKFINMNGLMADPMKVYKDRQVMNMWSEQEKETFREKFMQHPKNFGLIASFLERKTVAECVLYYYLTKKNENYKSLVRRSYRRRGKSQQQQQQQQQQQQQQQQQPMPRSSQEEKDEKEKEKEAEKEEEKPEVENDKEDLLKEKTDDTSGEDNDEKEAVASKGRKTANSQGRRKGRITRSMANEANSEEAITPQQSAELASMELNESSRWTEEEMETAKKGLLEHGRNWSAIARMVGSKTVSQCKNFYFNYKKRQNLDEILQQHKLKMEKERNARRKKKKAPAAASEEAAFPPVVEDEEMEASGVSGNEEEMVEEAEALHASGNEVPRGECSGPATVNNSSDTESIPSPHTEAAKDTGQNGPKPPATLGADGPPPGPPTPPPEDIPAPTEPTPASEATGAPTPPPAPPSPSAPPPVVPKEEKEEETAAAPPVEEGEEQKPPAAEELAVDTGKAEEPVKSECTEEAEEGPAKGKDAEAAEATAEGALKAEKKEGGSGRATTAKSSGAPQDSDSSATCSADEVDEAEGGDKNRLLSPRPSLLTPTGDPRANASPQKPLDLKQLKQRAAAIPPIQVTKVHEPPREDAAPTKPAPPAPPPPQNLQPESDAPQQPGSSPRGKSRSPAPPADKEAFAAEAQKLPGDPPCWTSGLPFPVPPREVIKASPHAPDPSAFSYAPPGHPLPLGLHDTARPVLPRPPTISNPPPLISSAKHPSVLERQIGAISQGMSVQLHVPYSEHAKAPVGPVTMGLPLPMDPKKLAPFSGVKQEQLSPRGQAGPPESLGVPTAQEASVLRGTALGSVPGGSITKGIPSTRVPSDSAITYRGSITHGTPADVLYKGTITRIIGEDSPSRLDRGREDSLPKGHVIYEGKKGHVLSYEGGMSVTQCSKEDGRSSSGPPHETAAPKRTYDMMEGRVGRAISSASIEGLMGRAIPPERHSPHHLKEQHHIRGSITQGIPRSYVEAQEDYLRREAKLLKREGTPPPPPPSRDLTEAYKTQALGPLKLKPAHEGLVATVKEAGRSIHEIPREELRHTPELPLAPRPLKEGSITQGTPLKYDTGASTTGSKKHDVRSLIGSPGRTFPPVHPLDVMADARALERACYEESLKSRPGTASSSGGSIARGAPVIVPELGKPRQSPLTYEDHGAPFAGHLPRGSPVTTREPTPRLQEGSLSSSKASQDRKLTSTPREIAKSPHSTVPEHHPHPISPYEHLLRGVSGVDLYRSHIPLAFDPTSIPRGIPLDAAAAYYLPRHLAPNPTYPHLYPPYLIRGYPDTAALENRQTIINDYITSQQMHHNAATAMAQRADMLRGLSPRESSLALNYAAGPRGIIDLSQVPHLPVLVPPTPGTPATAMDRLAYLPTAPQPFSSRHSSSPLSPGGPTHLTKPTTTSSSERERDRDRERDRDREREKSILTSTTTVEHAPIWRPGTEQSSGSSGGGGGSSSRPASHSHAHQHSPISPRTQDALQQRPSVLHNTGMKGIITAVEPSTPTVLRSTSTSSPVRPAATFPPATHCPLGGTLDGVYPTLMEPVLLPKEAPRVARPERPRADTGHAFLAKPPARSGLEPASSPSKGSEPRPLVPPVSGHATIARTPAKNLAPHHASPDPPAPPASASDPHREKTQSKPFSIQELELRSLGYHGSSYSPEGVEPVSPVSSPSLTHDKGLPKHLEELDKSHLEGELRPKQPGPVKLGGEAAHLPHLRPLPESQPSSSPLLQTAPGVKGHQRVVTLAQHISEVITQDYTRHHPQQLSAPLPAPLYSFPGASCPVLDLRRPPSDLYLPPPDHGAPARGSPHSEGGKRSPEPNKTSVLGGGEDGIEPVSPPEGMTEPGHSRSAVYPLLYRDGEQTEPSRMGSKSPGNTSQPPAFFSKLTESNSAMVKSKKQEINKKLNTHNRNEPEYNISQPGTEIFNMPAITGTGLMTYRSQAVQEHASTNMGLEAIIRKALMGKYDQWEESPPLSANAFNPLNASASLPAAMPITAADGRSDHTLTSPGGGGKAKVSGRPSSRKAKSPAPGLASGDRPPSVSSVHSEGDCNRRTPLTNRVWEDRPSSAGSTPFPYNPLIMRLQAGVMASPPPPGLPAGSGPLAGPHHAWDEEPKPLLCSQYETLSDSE

Sequence of Histone deacetylase 9 (Q9UKV0 whole entry, the tested form may be a part): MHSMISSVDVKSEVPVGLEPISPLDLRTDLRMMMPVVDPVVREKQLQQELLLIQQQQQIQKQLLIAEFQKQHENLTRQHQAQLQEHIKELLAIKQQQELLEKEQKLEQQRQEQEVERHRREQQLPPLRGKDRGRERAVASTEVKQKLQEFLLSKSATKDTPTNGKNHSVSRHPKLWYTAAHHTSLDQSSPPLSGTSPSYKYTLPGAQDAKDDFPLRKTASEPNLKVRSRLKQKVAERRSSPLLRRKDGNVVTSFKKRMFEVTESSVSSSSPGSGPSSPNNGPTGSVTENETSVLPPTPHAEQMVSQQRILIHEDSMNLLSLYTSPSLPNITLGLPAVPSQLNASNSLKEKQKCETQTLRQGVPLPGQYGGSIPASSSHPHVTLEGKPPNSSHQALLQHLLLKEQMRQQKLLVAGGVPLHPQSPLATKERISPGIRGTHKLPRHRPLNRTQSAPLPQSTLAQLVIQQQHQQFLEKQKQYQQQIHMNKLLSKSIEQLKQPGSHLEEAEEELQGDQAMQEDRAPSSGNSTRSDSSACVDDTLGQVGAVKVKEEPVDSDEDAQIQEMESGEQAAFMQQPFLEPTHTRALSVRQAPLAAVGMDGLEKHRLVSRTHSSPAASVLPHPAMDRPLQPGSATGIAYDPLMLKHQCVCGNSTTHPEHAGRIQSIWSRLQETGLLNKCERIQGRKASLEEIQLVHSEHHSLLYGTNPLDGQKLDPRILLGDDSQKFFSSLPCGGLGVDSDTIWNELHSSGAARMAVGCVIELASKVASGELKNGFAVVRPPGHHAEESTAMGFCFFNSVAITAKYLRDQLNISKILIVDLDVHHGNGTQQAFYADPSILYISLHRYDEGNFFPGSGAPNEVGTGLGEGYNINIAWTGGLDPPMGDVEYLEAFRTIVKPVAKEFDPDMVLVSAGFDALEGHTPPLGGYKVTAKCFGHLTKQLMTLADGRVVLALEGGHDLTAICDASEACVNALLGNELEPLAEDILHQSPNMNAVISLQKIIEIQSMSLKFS
Sequence of Nicotinamide phosphoribosyltransferase (P43490 whole entry, the tested form may be a part): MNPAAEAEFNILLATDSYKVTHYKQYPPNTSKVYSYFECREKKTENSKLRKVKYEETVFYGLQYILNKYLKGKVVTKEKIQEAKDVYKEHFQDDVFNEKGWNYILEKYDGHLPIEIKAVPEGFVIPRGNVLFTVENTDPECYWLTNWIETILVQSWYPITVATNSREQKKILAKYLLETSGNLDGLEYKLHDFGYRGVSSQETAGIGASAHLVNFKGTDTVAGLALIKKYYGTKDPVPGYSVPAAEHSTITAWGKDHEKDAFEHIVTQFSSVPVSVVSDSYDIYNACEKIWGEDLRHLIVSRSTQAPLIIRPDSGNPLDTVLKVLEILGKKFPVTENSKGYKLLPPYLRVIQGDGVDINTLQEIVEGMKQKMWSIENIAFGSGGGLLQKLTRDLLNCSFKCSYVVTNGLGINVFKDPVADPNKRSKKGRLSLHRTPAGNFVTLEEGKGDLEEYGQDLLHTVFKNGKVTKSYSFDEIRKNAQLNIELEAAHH

Row | SMILES | pIC50 (Histone deacetylase 11) | pIC50 [1] | CC50 (HL-60 [2]) | CC50 (MV4-11) | pIC50 [3] | GI50 (HL-60 [4]) | pIC50 (Histone deacetylase 9) | Cmax [5] | AUC(0-inf) [6] | half-life [7] | clearance [8] | pIC50 [9]
1 | CCCNNC(=O)c1ccc(CNC(=O)/C=C/c2cccnc2)cc1 | < 5.00 | 5.78 | > 100000 nM | 218 nM | < 5.00 | 42.2 nM | < 5.00 |  |  |  |  | 
2 | CCCNNC(=O)c1ccc(CNC(=O)c2cc3cnccc3[nH]2)cc1 | < 5.00 |  | > 100000 nM | 58.2 nM | < 5.00 | 51.2 nM | < 5.00 | 11700 ng/mL | 3360 ng·h/mL | 9.19 h | 25.1 mL/min/kg | 9.14
